# Reference: PubChem BioAssay (NCI)
#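 Assay format: 96-well plates, 48-hour exposure. GI50 is the concentration that inhibits growth by half. At the TGI there is no net growth.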
# Assays:
# Experiment in all cases: growth of human tumour cells (NCI), 48 h
# 786-0 renal = system: 786-0 renal
# A498 renal = system: A498 renal
# A549 NSCLC = system: A549 NSCLC
# ACHN renal = system: ACHN renal
# BT-549 breast = system: BT-549 breast
# CAKI-1 renal = system: CAKI-1 renal
# COLO 205 colon = system: COLO 205 colon
# DU-145 prostate = system: DU-145 prostate
# EKVX NSCLC = system: EKVX NSCLC
# HCC-2998 colon = system: HCC-2998 colon
# HCT-116 colon = system: HCT-116 colon
# HCT-15 colon = system: HCT-15 colon
# HL-60(TB) leukemia = system: HL-60(TB) leukemia
# HOP-62 NSCLC = system: HOP-62 NSCLC
# HOP-92 NSCLC = system: HOP-92 NSCLC
# HS 578T breast = system: HS 578T breast
# HT29 colon = system: HT29 colon
# IGROV1 ovarian = system: IGROV1 ovarian
# K-562 leukemia = system: K-562 leukemia
# KM12 colon = system: KM12 colon
# LOX IMVI melanoma = system: LOX IMVI melanoma
# M14 melanoma = system: M14 melanoma
# MALME-3M melanoma = system: MALME-3M melanoma
# MCF7 breast = system: MCF7 breast
# MDA-MB-231 breast = system: MDA-MB-231 breast
# MDA-MB-435 = system: MDA-MB-435
# MOLT-4 leukemia = system: MOLT-4 leukemia
# NCI-H226 lung = system: NCI-H226 lung
# NCI-H23 lung = system: NCI-H23 lung
# NCI-H460 lung = system: NCI-H460 lung
# NCI-H522 lung = system: NCI-H522 lung
# NCI/ADR-RES ovarian = system: NCI/ADR-RES ovarian
# OVCAR-3 ovarian = system: OVCAR-3 ovarian
# OVCAR-4 ovarian = system: OVCAR-4 ovarian
# OVCAR-5 ovarian = system: OVCAR-5 ovarian
# OVCAR-8 ovarian = system: OVCAR-8 ovarian
# PC-3 prostate = system: PC-3 prostate
# RPMI-8226 leukemia = system: RPMI-8226 leukemia
# RXF 393 renal = system: RXF 393 renal
# SF-268 CNS = system: SF-268 CNS
# SF-295 CNS = system: SF-295 CNS
# SF-539 CNS = system: SF-539 CNS
# SK-MEL-2 melanoma = system: SK-MEL-2 melanoma
# SK-MEL-28 melanoma = system: SK-MEL-28 melanoma
# SK-MEL-5 melanoma = system: SK-MEL-5 melanoma
# SK-OV-3 ovarian = system: SK-OV-3 ovarian
# SN12C renal = system: SN12C renal
# SNB-19 CNS = system: SNB-19 CNS
# SNB-75 CNS = system: SNB-75 CNS
# SR leukemia = system: SR leukemia
# SW-620 colon = system: SW-620 colon
# T-47D breast = system: T-47D breast
# TK-10 renal = system: TK-10 renal
# U251 CNS = system: U251 CNS
# UACC-257 melanoma = system: UACC-257 melanoma
# UACC-62 melanoma = system: UACC-62 melanoma
# UO-31 renal = system: UO-31 renal
compound,measurement,setting,value
COc1ccc2oc(=O)cc(C3c4ccc([nH]4)C(c4cc(=O)oc5ccc(OC)cc45)c4ccc([nH]4)C(c4cc(=O)oc5ccc(OC)cc45)c4ccc([nH]4)C(c4cc(=O)oc5ccc(OC)cc45)c4ccc3[nH]4)c2c1 (centres undefined),GI50,786-0 renal,1000 nM
same,TGI,786-0 renal,2200 nM
same,GI50,A498 renal,4090 nM
same,TGI,A498 renal,12700 nM
same,GI50,A549 NSCLC,4230 nM
same,TGI,A549 NSCLC,14300 nM
same,GI50,ACHN renal,2120 nM
same,TGI,ACHN renal,6710 nM
same,GI50,BT-549 breast,2020 nM
same,TGI,BT-549 breast,5360 nM
same,GI50,CAKI-1 renal,2160 nM
same,TGI,CAKI-1 renal,6770 nM
same,GI50,COLO 205 colon,1750 nM
same,TGI,COLO 205 colon,3600 nM
same,GI50,DU-145 prostate,2070 nM
same,TGI,DU-145 prostate,4750 nM
same,GI50,EKVX NSCLC,7580 nM
same,TGI,EKVX NSCLC,22300 nM
same,GI50,HCC-2998 colon,2170 nM
same,TGI,HCC-2998 colon,4060 nM
same,GI50,HCT-116 colon,570 nM
same,TGI,HCT-116 colon,1930 nM
same,GI50,HCT-15 colon,399 nM
same,TGI,HCT-15 colon,1530 nM
same,GI50,HL-60(TB) leukemia,357 nM
same,TGI,HL-60(TB) leukemia,976 nM
same,GI50,HOP-62 NSCLC,2730 nM
same,TGI,HOP-62 NSCLC,9560 nM
same,GI50,HOP-92 NSCLC,2050 nM
same,TGI,HOP-92 NSCLC,6500 nM
same,GI50,HS 578T breast,2800 nM
same,TGI,HS 578T breast,9430 nM
same,GI50,HT29 colon,2280 nM
same,TGI,HT29 colon,5440 nM
same,GI50,IGROV1 ovarian,2440 nM
same,TGI,IGROV1 ovarian,10800 nM
same,GI50,K-562 leukemia,413 nM
same,TGI,K-562 leukemia,2030 nM
same,GI50,KM12 colon,2910 nM
same,TGI,KM12 colon,10800 nM
same,GI50,LOX IMVI melanoma,814 nM
same,TGI,LOX IMVI melanoma,2430 nM
same,GI50,M14 melanoma,1240 nM
same,TGI,M14 melanoma,4600 nM
same,GI50,MALME-3M melanoma,1540 nM
same,TGI,MALME-3M melanoma,3730 nM
same,GI50,MCF7 breast,364 nM
same,TGI,MCF7 breast,2160 nM
same,GI50,MDA-MB-231 breast,2150 nM
same,TGI,MDA-MB-231 breast,9040 nM
same,GI50,MDA-MB-435,1900 nM
same,TGI,MDA-MB-435,6660 nM
same,GI50,MOLT-4 leukemia,414 nM
same,TGI,MOLT-4 leukemia,4240 nM
same,GI50,NCI-H226 lung,1360 nM
same,TGI,NCI-H226 lung,4630 nM
same,GI50,NCI-H23 lung,2370 nM
same,TGI,NCI-H23 lung,6420 nM
same,GI50,NCI-H460 lung,3110 nM
same,TGI,NCI-H460 lung,10400 nM
same,GI50,NCI-H522 lung,1650 nM
same,TGI,NCI-H522 lung,3160 nM
same,GI50,NCI/ADR-RES ovarian,594 nM
same,TGI,NCI/ADR-RES ovarian,24800 nM
same,GI50,OVCAR-3 ovarian,230 nM
same,TGI,OVCAR-3 ovarian,611 nM
same,GI50,OVCAR-4 ovarian,1260 nM
same,TGI,OVCAR-4 ovarian,2780 nM
same,GI50,OVCAR-5 ovarian,2980 nM
same,TGI,OVCAR-5 ovarian,11100 nM
same,GI50,OVCAR-8 ovarian,619 nM
same,TGI,OVCAR-8 ovarian,2780 nM
same,GI50,PC-3 prostate,2210 nM
same,TGI,PC-3 prostate,6760 nM
same,GI50,RPMI-8226 leukemia,432 nM
same,TGI,RPMI-8226 leukemia,2040 nM
same,GI50,RXF 393 renal,318 nM
same,TGI,RXF 393 renal,950 nM
same,GI50,SF-268 CNS,2890 nM
same,TGI,SF-268 CNS,11200 nM
same,GI50,SF-295 CNS,2820 nM
same,TGI,SF-295 CNS,10600 nM
same,GI50,SF-539 CNS,1700 nM
same,TGI,SF-539 CNS,3910 nM
same,GI50,SK-MEL-2 melanoma,3020 nM
same,TGI,SK-MEL-2 melanoma,9500 nM
same,GI50,SK-MEL-28 melanoma,2480 nM
same,TGI,SK-MEL-28 melanoma,12900 nM
same,GI50,SK-MEL-5 melanoma,2210 nM
same,TGI,SK-MEL-5 melanoma,9070 nM
same,GI50,SK-OV-3 ovarian,2450 nM
same,TGI,SK-OV-3 ovarian,7330 nM
same,GI50,SN12C renal,3120 nM
same,TGI,SN12C renal,12700 nM
same,GI50,SNB-19 CNS,5480 nM
same,TGI,SNB-19 CNS,18300 nM
same,GI50,SNB-75 CNS,2710 nM
same,TGI,SNB-75 CNS,14800 nM
same,GI50,SR leukemia,371 nM
same,TGI,SR leukemia,1660 nM
same,GI50,SW-620 colon,389 nM
same,TGI,SW-620 colon,1690 nM
same,GI50,T-47D breast,475 nM
same,TGI,T-47D breast,3690 nM
same,GI50,TK-10 renal,1580 nM
same,TGI,TK-10 renal,2950 nM
same,GI50,U251 CNS,4000 nM
same,TGI,U251 CNS,13900 nM
same,GI50,UACC-257 melanoma,2250 nM
same,TGI,UACC-257 melanoma,13200 nM
same,GI50,UACC-62 melanoma,2690 nM
same,TGI,UACC-62 melanoma,7810 nM
same,GI50,UO-31 renal,1220 nM
same,TGI,UO-31 renal,3740 nM
